Data as given in patent US11655242B2, “Glucagon-like peptide1 receptor agonists” (Eli Lilly and Company, priority 2019, dated 2023).
Where two headings read alike, the source gives them in different places.

Columns and labels:
[1] = tested on: mice expressing the human GLP-1R; test: In Vivo Intraperitoneal Glucose Tolerance Test in Human GLP-1R Knock-in Mice; conditions: Mus musculus; read-out: Blood glucose lowering ED50
Experimental: In Vivo Intraperitoneal Glucose Tolerance Test in Human GLP-1R Knock-in Mice
The potency of the exemplified compounds to lower the concentration of blood glucose in vivo is determined using mice expressing the human GLP-1R (NCBI accession number NP_002053) from the mouse Glp-1r genetic locus (Jun, L. S., et al., PLoS One. 2014 9:e93746). Overnight fasted mice are orally administered the test compound solubilized in 10% Kolliphor® (HS15) in Polyetheylene Glycol 400 (PEG400). One hour post-dose, the animals are administered glucose by intraperitoneal injection (2 g/kg), and blood glucose levels are measured intermittingly over the next two hours using glucometers. A dose range of the test compound is delivered, and area under the curve calculations for each dose group are determined and fit to a four-parameter logistic model for calculating in vivo potency as an ED50 with a 95% confidence interval.

[2] = target: PDE10A1 (Homo sapiens (Human), UniProt Q9Y233); test: Phosphodiesterase 10 (PDE10) Enzyme Activity Assay; assay type: biochemical; conditions: read-out: IC50 (μM), n = 1, inhibition of PDE10A1; SPA, [3H]-cGMP substrate, maximal compound concentration 10 μM
Experimental: Phosphodiesterase 10 (PDE10) Enzyme Activity Assay
To generate phosphodiesterase 10A1 (PDE10A1) protein, a full-length PDE10A1 clone corresponding to GenBank ID AAD32595.1 is cloned into pFastBac1 (Invitrogen). The PDE10A1 protein with a C-terminal FLAG-tag is expressed by baculoviral infection of insect cells and purified using anti-FLAG M2-agarose (Sigma) and size exclusion chromatography on a Superdex 200 column (GE Healthcare) and stored at −80° C. in small aliquots (20 mM Tris-HCl, Ph 7.5, 150 mM NaCl, 10% Glycerol).
PDE10A1 enzyme activities are measured with a yittrium silicate based scintillation proximity assay (SPA) that detects radioactive nucleotide monophosphates but not cyclic monophosphates. The assay buffer is composed of 50 mM Tris-HCl pH 7.5, 8 mM MgCl2, 3.4 mM EDTA, and 0.1% BSA (Sigma). Assays are conducted in 384 well plates (3706, Corning) in a total volume of 50 μl: comprised of 24 μl PDE10A1 enzyme, 1 μl test compound and 25 μl of cyclic nucleotide. Test compounds are diluted in pure DMSO using ten-point concentration response curves with a 3-fold dilution factor and 1 μl is acoustically dispensed into assay plates using the Echo555 (LabCyte). 24 μl PDE10A1 protein is incubated with 1 μl compound for 30 min before the reaction is started by the addition of [8-^3H]-cGMP substrate (6.5 Ci/mmol, Perkin Elmer). Final concentration of components is […], 80 nM (3H-cGMP), and 2% DMSO in assay buffer. Maximal compound concentration in the reaction mixture is 10 μM. Reactions are incubated for 60 min at RT before quenching and the addition of […] SPA beads (RPNQ0150, Perkin Elmer). Bead bound radioactivity (product) is quantified 12 h later with a Microbeta counter (Perkin Elmer). Data is normalized to % inhibition and IC50 values are calculated using the 4 parameter logistic equation as described (Campbell R. M.; Dymshitz, J.; Eastwood, B. J.; et al. “Data Standardization for Results Management.” In: Sittampalam, G. S.; Grossman, A.; Brimacombe, K.; et al.; eds. Assay Guidance Manual. Bethesda (Md.): Eli Lilly & Company and the National Center for Advancing Translational Sciences; 2004.).

[3] = Non-Human Primate (NHP) Pharmacokinetics; assay type: in vivo; conditions: cynomolgus monkey, plasma, IV 0.5 mg/kg, fasted male cynomolgus monkeys; for Vd: steady-state, read-out: Volume of distribution
Experimental: Non-Human Primate (NHP) Pharmacokinetics:
The test compound is administered to fasted male cynomolgus monkeys intravenously (IV) at 0.5 mg/kg (using a dose volume of 1 mL/kg). Serial blood samples are collected at 0.08, 0.25, 0.5, 1, 2, 4, 8, 12, and 24 hours post dose for IV bolus. After treatment with an EDTA […], plasma is obtained by centrifugation and stored at −70° C. until analysis by LC-MS/MS. Test article concentration is determined in plasma. Noncompartmental analysis is used to calculate plasma clearance and steady-state volume of distribution.

[4] = target: hERG K+ channel (Homo sapiens (Human), UniProt Q12809); test: Human hERG K+ Channel Affinity Radioligand Binding Assay; conditions: pH 7.4, probe [3H]dofetilide, 3 nM, read-out: Percent inhibition (%) at 100 μM compound concentration, n = 1
Experimental: Human hERG K^+ Channel Affinity Radioligand Binding Assay
The affinity of compounds for the human hERG K^+ channel in transfected HEK-293 cells is evaluated in a radioligand binding assay as described herein. Cell membrane homogenates (about […]) are incubated for 60 min at 22° C. with 3 nM [^3H]dofetilide in the absence or presence of the test compound in a buffer containing 50 mM Tris-HCl (pH 7.4), 10 mM KCl and 1 mM MgCl2. The assay is carried out in a 96-well plate format with a volume of 200 μL, containing a maximum of 1% DMSO from initial solubilization of test compound. Following incubation, the samples are filtered rapidly under vacuum through glass fiber filters (GF/B, Packard) presoaked with 0.3% PEI and rinsed several times with ice-cold 50 mM Tris-HCl, 10 mM KCl and 1 mM MgCl2 using a 96-sample cell harvester (Unifilter, Packard). The filters are dried and then counted for radioactivity in a scintillation counter (Topcount, Packard) using a scintillation cocktail (Microscint 0, Packard).

[5] = target: human GLP-1R (Homo sapiens (Human), UniProt P43220); test: Human GLP-1 Receptor HEK293 Cell cAMP Assay; conditions: for EC50: EC50 (nM) ± SEM (n), intracellular cAMP response, relative EC50; for Emax: percent of maximal response with human GLP-1(7-36)NH2
Experimental: After a 30 min incubation at 37° C., the resulting increase in intracellular cAMP is quantitatively determined using the CisBio cAMP Dynamic 2 HTRF Assay Kit (62AM4PEJ). Briefly, cAMP levels within the cell are detected by adding the cAMP-d2 conjugate in cell lysis buffer (10 μL) followed by the antibody anti-cAMP-Eu^3+-Cryptate, also in cell lysis buffer (10 μL). […] The amount of cAMP generated (nM) in each well is converted to a percent of the maximal response observed with human GLP-1(7-36)NH2. A relative EC50 value and percent top (Emax) are derived by non-linear regression analysis using the percent maximal response vs. the concentration of compound added, fitted to a four-parameter logistic equation.

[6] = HEK293 cell line with 104 fmol/mg expression density of GLP-1R
[7] = HEK293 cell line with 581 fmol/mg expression density of GLP-1R
[8] = HEK293, read-out: Emax (%) ± SEM (n), HEK293 cell line with 104 fmol/mg expression density of GLP-1R
[9] = HEK293, read-out: Emax (%) ± SEM (n), HEK293 cell line with 581 fmol/mg expression density of GLP-1R

Chain of PDE10A1 (Q9Y233 other isoform, or with tags, fused parts or gaps): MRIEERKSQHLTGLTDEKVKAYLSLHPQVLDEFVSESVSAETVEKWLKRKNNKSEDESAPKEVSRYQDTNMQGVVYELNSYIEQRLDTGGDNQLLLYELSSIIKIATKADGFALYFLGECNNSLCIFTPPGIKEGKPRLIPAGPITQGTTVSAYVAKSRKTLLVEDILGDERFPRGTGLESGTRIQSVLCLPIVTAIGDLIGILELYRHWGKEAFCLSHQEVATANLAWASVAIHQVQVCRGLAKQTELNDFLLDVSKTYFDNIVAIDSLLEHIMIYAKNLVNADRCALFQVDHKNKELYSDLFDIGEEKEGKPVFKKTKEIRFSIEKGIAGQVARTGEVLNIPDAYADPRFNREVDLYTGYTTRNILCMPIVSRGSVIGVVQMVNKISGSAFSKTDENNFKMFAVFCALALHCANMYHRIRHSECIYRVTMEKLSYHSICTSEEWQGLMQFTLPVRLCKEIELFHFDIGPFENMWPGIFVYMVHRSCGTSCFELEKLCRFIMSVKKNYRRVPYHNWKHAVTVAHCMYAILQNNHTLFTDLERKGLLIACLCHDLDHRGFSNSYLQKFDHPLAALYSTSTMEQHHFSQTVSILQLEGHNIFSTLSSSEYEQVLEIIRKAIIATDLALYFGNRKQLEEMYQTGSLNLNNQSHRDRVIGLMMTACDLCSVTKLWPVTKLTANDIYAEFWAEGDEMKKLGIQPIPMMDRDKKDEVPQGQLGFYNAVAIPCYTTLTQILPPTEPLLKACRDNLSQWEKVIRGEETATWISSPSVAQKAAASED
Chain of human GLP-1R (P43220 24-463): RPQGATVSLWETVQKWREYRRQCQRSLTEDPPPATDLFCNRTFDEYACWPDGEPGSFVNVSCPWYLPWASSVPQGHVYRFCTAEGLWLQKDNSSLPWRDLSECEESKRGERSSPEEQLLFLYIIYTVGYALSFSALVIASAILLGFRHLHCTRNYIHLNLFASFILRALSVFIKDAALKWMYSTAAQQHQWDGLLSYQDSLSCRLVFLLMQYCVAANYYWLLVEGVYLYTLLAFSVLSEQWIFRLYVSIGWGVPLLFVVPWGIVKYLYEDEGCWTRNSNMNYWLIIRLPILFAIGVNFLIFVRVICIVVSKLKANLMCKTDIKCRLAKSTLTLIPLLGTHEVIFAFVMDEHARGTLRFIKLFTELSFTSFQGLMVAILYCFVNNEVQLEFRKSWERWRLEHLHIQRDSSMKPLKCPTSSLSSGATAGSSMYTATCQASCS
Chain of hERG K+ channel (Q12809 whole entry): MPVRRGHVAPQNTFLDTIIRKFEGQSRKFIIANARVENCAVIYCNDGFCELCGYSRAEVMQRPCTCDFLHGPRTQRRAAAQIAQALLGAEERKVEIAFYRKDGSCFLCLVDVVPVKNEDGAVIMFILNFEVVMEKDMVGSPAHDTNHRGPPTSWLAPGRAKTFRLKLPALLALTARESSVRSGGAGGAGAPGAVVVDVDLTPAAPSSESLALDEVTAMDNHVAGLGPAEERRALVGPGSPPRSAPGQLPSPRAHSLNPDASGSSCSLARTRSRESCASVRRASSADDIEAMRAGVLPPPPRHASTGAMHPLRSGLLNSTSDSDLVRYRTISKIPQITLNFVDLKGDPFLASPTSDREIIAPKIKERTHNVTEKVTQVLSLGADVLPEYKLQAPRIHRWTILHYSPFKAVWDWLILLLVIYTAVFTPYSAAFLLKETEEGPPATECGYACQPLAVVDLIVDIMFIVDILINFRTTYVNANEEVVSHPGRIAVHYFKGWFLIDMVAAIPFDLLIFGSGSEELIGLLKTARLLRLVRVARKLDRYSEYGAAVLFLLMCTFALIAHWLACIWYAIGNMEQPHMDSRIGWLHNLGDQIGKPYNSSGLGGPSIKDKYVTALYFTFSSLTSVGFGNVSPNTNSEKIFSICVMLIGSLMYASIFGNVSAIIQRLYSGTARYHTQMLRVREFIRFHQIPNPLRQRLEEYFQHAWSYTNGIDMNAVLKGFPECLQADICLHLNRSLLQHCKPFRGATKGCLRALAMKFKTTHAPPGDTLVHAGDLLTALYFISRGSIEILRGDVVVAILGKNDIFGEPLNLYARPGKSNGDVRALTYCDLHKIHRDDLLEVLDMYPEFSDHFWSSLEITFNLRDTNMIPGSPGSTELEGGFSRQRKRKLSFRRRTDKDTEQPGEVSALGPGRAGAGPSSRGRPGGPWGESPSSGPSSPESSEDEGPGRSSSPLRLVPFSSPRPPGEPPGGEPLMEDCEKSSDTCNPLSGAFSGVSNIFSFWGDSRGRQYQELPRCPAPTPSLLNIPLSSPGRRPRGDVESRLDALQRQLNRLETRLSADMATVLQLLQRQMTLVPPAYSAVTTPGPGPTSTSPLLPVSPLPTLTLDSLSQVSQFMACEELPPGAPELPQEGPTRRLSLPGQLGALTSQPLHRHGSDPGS

IC50 [2] | clearance [3] | Vd [3] | EC50 [5, 6] | EC50 [5, 7] | Emax [5, 8] | Emax [5, 9] | SMILES | ED50 [1] | inhibition at 60 min, 100 µM [4]
> 10 µM | 13 mL/min/kg | 1.2 L/kg | 20 ± 3.25 nM | 9.33 ± 1.36 nM | 71.4 ± 2.26% | 99.5 ± 2.53% | Cc1cc(Cc2nc3ccc(C(=O)O)cc3n2C[C@@H]2CCO2)ccc1-c1cccc(OCc2ccc(C#N)cc2F)n1 [Example 1, 2-[[4-[6-[(4-Cyano-2-fluoro-phenyl)methoxy]-2-pyridyl]-3-methyl-phenyl]methyl]-3-[[(2S)-oxetan-2-yl]methyl]benzimidazole-5-carboxylic Acid] | 0.09 mg/kg | 0%
7.43 µM | 11 mL/min/kg | 1.1 L/kg | 3.97 ± 0.61 nM | 1.14 ± 0.315 nM | 79.2 ± 3.2% | 104 ± 4.35% | Cc1cc(Cc2nc3ccc(C(=O)O)cc3n2C[C@@H]2CCO2)c(F)cc1-c1cccc(OCc2ccc(C#N)cc2F)n1 [Example 2, 2-[[4-[6-[(4-Cyano-2-fluoro-phenyl)methoxy]-2-pyridyl]-2-fluoro-5-methyl-phenyl]methyl]-3-[[(2S)-oxetan-2-yl]methyl]benzimidazole-5-carboxylic Acid] | 0.07 mg/kg | 54%
> 10 µM | 6 mL/min/kg | 1.1 L/kg | – | – | – | – | N#Cc1ccc(COc2cccc(-c3ccc(Cc4nc5ccc(C(=O)O)cc5n4C[C@@H]4CCO4)c(F)c3)n2)c(F)c1 [Example 3, 2-[[4-[6-[(4-Cyano-2-fluoro-phenyl)methoxy]-2-pyridyl]-2-fluoro-phenyl]methyl]-3-[(2S)-oxetan-2-ylmethyl]benzimidazole-5-carboxylic Acid] | 0.06 mg/kg | 37%
– | – | – | 23.6 ± 5.43 nM | 6.45 ± 0.934 nM | 76.7 ± 3.88% | 105 ± 2.43% | Cc1c(-c2cccc(OCc3ccc(C#N)cc3F)n2)ccc(Cc2nc3ccc(C(=O)O)cc3n2C[C@@H]2CCO2)c1F [Example 5, 2-[[4-[6-[(4-Cyano-2-fluoro-phenyl)methoxy]-2-pyridyl]-2-fluoro-3-methyl-phenyl]methyl]-3-[[(2S)-oxetan-2-yl]methyl]benzimidazole-5-carboxylic Acid] | – | –

SMILES | IC50 [2] | clearance [3] | Vd [3] | EC50 [5, 6] | EC50 [5, 7] | Emax [5, 8] | Emax [5, 9] | ED50 [1] | inhibition at 60 min, 100 µM [4]
N#Cc1ccc(COc2cccc(-c3cc(F)c(Cc4nc5ccc(C(=O)O)cc5n4C[C@@H]4CCO4)c(F)c3)n2)c(F)c1 [Example 4, 2-[[4-[6-[(4-Cyano-2-fluoro-phenyl)methoxy]-2-pyridyl]-2,6-difluoro-phenyl]methyl]-3-[(2S)-oxetan-2-ylmethyl]benzimidazole-5-carboxylic Acid] | 5.41 µM | – | – | 9.59 ± 2.36 nM | 3.99 ± 0.378 nM | 78.3 ± 5.1% | 99.2 ± 4% | – | –
